Measured values published in ChEMBL document CHEMBL1201862, “PubChem BioAssay data set” (2004).
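Cultured in 96-well plates, cells were exposed to test compound for 48 hours across five concentrations. Here, GI50 denotes the concentration required for 50% inhibition of growth.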 Activity calls are given as the source filed them. Cut-off read from the data, not from the text of the source: active = GI50 up to about 1.1 µM and inactive = higher.

Key:
Assay in all cases: NCI-60 cell line screen, 48 h
Hs-578T = system: Hs-578T
NCI-H460 = system: NCI-H460
OVCAR-8 = system: OVCAR-8
NCI-H23 = system: NCI-H23
UACC-62 = system: UACC-62
SK-OV-3 = system: SK-OV-3
U-251 = system: U-251
TK-10 = system: TK-10
PC-3 = system: PC-3
Malme-3M = system: Malme-3M
UACC-257 = system: UACC-257
SR = system: SR
OVCAR-3 = system: OVCAR-3
SF-268 = system: SF-268
K562 = system: K562
786-0 = system: 786-0
CAKI-1 = system: CAKI-1
OVCAR-5 = system: OVCAR-5
RPMI-8226 = system: RPMI-8226
COLO 205 = system: COLO 205
BT-549 = system: BT-549
LOX IMVI = system: LOX IMVI
CCRF-CEM = system: CCRF-CEM
SF-295 = system: SF-295
NCI-H226 = system: NCI-H226
SNB-19 = system: SNB-19
SK-MEL-5 = system: SK-MEL-5
HL-60 = system: HL-60
HCT-15 = system: HCT-15
MOLT-4 = system: MOLT-4
KM12 = system: KM12
A549 = system: A549
SNB-75 = system: SNB-75
T47D = system: T47D
MDA-N = system: MDA-N
NCI-H522 = system: NCI-H522
UO-31 = system: UO-31
A498 = system: A498
ACHN = system: ACHN
HT-29 = system: HT-29
DU-145 = system: DU-145
OVCAR-4 = system: OVCAR-4
MDA-MB-435 = system: MDA-MB-435
SK-MEL-2 = system: SK-MEL-2
MDA-MB-231 = system: MDA-MB-231
MCF7 = system: MCF7
M14 = system: M14
HCT-116 = system: HCT-116
IGROV-1 = system: IGROV-1
SW-620 = system: SW-620
HOP-62 = system: HOP-62
NCI/ADR-RES = system: NCI/ADR-RES
SK-MEL-28 = system: SK-MEL-28
SN12C = system: SN12C
SF-539 = system: SF-539
EKVX = system: EKVX
RXF 393 = system: RXF 393
HCC 2998 = system: HCC 2998
HOP-92 = system: HOP-92

## Cc1cn([C@H]2C[C@H](O)[C@@H](CO)O2)c(=O)nc1N
Hs-578T
  GI50: > 100 µM (inactive)
NCI-H460
  GI50: > 100 µM (inactive)
OVCAR-8
  GI50: > 100 µM (inactive)
NCI-H23
  GI50: > 100 µM (inactive)
UACC-62
  GI50: > 100 µM (inactive)
SK-OV-3
  GI50: > 100 µM (inactive)
U-251
  GI50: > 100 µM (inactive)
TK-10
  GI50: > 100 µM (inactive)
PC-3
  GI50: > 100 µM (inactive)
Malme-3M
  GI50: > 100 µM (inactive)
UACC-257
  GI50: > 100 µM (inactive)
SR
  GI50: > 100 µM (inactive)
OVCAR-3
  GI50: > 100 µM (inactive)
SF-268
  GI50: > 100 µM (inactive)
K562
  GI50: > 100 µM (inactive)
786-0
  GI50: > 100 µM (inactive)
CAKI-1
  GI50: > 100 µM (inactive)
OVCAR-5
  GI50: > 100 µM (inactive)
RPMI-8226
  GI50: > 100 µM (inactive)
COLO 205
  GI50: > 100 µM (inactive)
BT-549
  GI50: > 100 µM (inactive)
LOX IMVI
  GI50: > 100 µM (inactive)
CCRF-CEM
  GI50: > 100 µM (inactive)
SF-295
  GI50: > 100 µM (inactive)
NCI-H226
  GI50: > 100 µM (inactive)
SNB-19
  GI50: > 100 µM (inactive)
SK-MEL-5
  GI50: > 100 µM (inactive)
HL-60
  GI50: > 100 µM (inactive)
HCT-15
  GI50: > 100 µM
MOLT-4
  GI50: > 100 µM (inactive)
KM12
  GI50: > 100 µM (inactive)
A549
  GI50: > 100 µM (inactive)
SNB-75
  GI50: > 100 µM (inactive)
T47D
  GI50: > 100 µM (inactive)
MDA-N
  GI50: > 100 µM (inactive)
NCI-H522
  GI50: > 100 µM (inactive)
UO-31
  GI50: > 100 µM (inactive)
A498
  GI50: > 100 µM (inactive)
ACHN
  GI50: > 100 µM (inactive)
HT-29
  GI50: > 100 µM (inactive)
DU-145
  GI50: > 100 µM (inactive)
OVCAR-4
  GI50: > 100 µM (inactive)
MDA-MB-435
  GI50: > 100 µM (inactive)
SK-MEL-2
  GI50: > 100 µM (inactive)
MDA-MB-231
  GI50: > 100 µM (inactive)
MCF7
  GI50: > 100 µM (inactive)
M14
  GI50: > 100 µM (inactive)
HCT-116
  GI50: > 100 µM (inactive)
IGROV-1
  GI50: > 100 µM (inactive)
SW-620
  GI50: > 100 µM (inactive)
HOP-62
  GI50: > 100 µM (inactive)
NCI/ADR-RES
  GI50: > 100 µM (inactive)
SK-MEL-28
  GI50: > 100 µM (inactive)
SN12C
  GI50: > 100 µM (inactive)
SF-539
  GI50: > 100 µM (inactive)

## COc1ccc(OC)c(-c2nc(O)c3ccccc3n2)c1
Hs-578T
  GI50: > 100 µM (inactive)
NCI-H460
  GI50: > 100 µM (inactive)
EKVX
  GI50: > 100 µM (inactive)
OVCAR-8
  GI50: > 100 µM (inactive)
NCI-H23
  GI50: > 100 µM (inactive)
UACC-62
  GI50: 66.8 µM (inactive)
SK-OV-3
  GI50: > 100 µM (inactive)
U-251
  GI50: > 100 µM (inactive)
PC-3
  GI50: > 100 µM (inactive)
Malme-3M
  GI50: > 100 µM (inactive)
UACC-257
  GI50: > 100 µM (inactive)
SR
  GI50: 67 µM (inactive)
OVCAR-3
  GI50: > 100 µM (inactive)
SF-268
  GI50: > 100 µM (inactive)
RXF 393
  GI50: 15 µM (inactive)
K562
  GI50: > 100 µM (inactive)
786-0
  GI50: > 100 µM (inactive)
HCC 2998
  GI50: > 100 µM (inactive)
CAKI-1
  GI50: > 100 µM (inactive)
OVCAR-5
  GI50: > 100 µM (inactive)
RPMI-8226
  GI50: 78.3 µM (inactive)
COLO 205
  GI50: > 100 µM (inactive)
BT-549
  GI50: > 100 µM (inactive)
CCRF-CEM
  GI50: > 100 µM (inactive)
SF-295
  GI50: > 100 µM (inactive)
NCI-H226
  GI50: > 100 µM (inactive)
SNB-19
  GI50: > 100 µM (inactive)
SK-MEL-5
  GI50: 74 µM (inactive)
HCT-15
  GI50: > 100 µM
MOLT-4
  GI50: 40.6 µM (inactive)
KM12
  GI50: 42.4 µM (inactive)
A549
  GI50: > 100 µM (inactive)
SNB-75
  GI50: > 100 µM (inactive)
T47D
  GI50: 25.6 µM (inactive)
MDA-N
  GI50: > 100 µM (inactive)
UO-31
  GI50: > 100 µM (inactive)
A498
  GI50: > 100 µM (inactive)
ACHN
  GI50: > 100 µM (inactive)
HT-29
  GI50: > 100 µM (inactive)
DU-145
  GI50: > 100 µM (inactive)
OVCAR-4
  GI50: > 100 µM (inactive)
MDA-MB-435
  GI50: > 100 µM (inactive)
SK-MEL-2
  GI50: > 100 µM (inactive)
MDA-MB-231
  GI50: > 100 µM (inactive)
MCF7
  GI50: > 100 µM (inactive)
M14
  GI50: > 100 µM (inactive)
HCT-116
  GI50: > 100 µM (inactive)
IGROV-1
  GI50: > 100 µM (inactive)
SW-620
  GI50: > 100 µM (inactive)
HOP-62
  GI50: > 100 µM (inactive)
NCI/ADR-RES
  GI50: 98.4 µM (inactive)
SN12C
  GI50: > 100 µM (inactive)
SF-539
  GI50: 50.7 µM (inactive)

## COC(=O)c1ccc(/N=N/N(C)COc2ccc(C#N)cc2)cc1
Hs-578T
  GI50: 59.4 µM (inactive)
NCI-H460
  GI50: 18.2 µM (inactive)
EKVX
  GI50: > 100 µM (inactive)
OVCAR-8
  GI50: > 100 µM (inactive)
NCI-H23
  GI50: > 100 µM (inactive)
SK-OV-3
  GI50: > 100 µM (inactive)
U-251
  GI50: 98.6 µM (inactive)
TK-10
  GI50: > 100 µM (inactive)
PC-3
  GI50: > 100 µM (inactive)
Malme-3M
  GI50: > 100 µM (inactive)
UACC-257
  GI50: > 100 µM (inactive)
OVCAR-3
  GI50: > 100 µM (inactive)
SF-268
  GI50: > 100 µM (inactive)
RXF 393
  GI50: 95.5 µM (inactive)
K562
  GI50: 35.2 µM (inactive)
786-0
  GI50: > 100 µM (inactive)
HCC 2998
  GI50: 62.1 µM (inactive)
CAKI-1
  GI50: 69 µM (inactive)
OVCAR-5
  GI50: 61 µM (inactive)
RPMI-8226
  GI50: > 100 µM (inactive)
COLO 205
  GI50: 61.2 µM (inactive)
BT-549
  GI50: > 100 µM (inactive)
LOX IMVI
  GI50: 56.1 µM (inactive)
CCRF-CEM
  GI50: 20.3 µM (inactive)
SF-295
  GI50: 44.8 µM (inactive)
NCI-H226
  GI50: > 100 µM (inactive)
SNB-19
  GI50: > 100 µM (inactive)
SK-MEL-5
  GI50: 45.1 µM (inactive)
HL-60
  GI50: 16.6 µM (inactive)
HCT-15
  GI50: 22.4 µM
MOLT-4
  GI50: 82.2 µM (inactive)
KM12
  GI50: 70.8 µM (inactive)
A549
  GI50: 70 µM (inactive)
SNB-75
  GI50: 49.2 µM (inactive)
T47D
  GI50: 74 µM (inactive)
MDA-N
  GI50: > 100 µM (inactive)
NCI-H522
  GI50: > 100 µM (inactive)
UO-31
  GI50: 77.3 µM (inactive)
A498
  GI50: > 100 µM (inactive)
ACHN
  GI50: 21.2 µM (inactive)
HT-29
  GI50: > 100 µM (inactive)
DU-145
  GI50: 40.4 µM (inactive)
OVCAR-4
  GI50: > 100 µM (inactive)
MDA-MB-435
  GI50: 40.4 µM (inactive)
SK-MEL-2
  GI50: > 100 µM (inactive)
MDA-MB-231
  GI50: > 100 µM (inactive)
MCF7
  GI50: > 100 µM (inactive)
M14
  GI50: > 100 µM (inactive)
HCT-116
  GI50: 79.4 µM (inactive)
HOP-92
  GI50: 34.4 µM (inactive)
IGROV-1
  GI50: > 100 µM (inactive)
SW-620
  GI50: 53.5 µM (inactive)
HOP-62
  GI50: > 100 µM (inactive)
NCI/ADR-RES
  GI50: 67 µM (inactive)
SK-MEL-28
  GI50: > 100 µM (inactive)
SN12C
  GI50: > 100 µM (inactive)
SF-539
  GI50: > 100 µM (inactive)
